Test results reported in ChEMBL document CHEMBL5154808, “Novel β-Hairpin Antimicrobial Peptides Containing the β-Turn Sequence of -RRRF- Having High Cell Selectivity and Low Incidence of Drug Resistance” (J Med Chem, 2022).
Activity calls are given as the source filed them. The calls are words filed in the database; no cut-off is given here.

Legend:
[1] = tested on: Escherichia coli; test: Antimicrobial activity against Escherichia coli ATCC 25922 assessed as reduction of bacterial growth at 2 times MIC incubated for 18 hrs in presence of trypsin by CLSI protocol based broth microdilution method; assay type: functional, organism-based
[2] = tested on: Staphylococcus aureus; test: Antibacterial activity against Staphylococcus aureus ATCC 25923 infected BALB/c mouse assessed as reduction in pulmonary inflammatory cell infiltration at 5 to 10 mg/kg, ip measured after 24 hrs by hematoxylin and eosin staining based assay; assay type: functional, organism-based; conditions: dose 5-10 mg/kg
[3] = tested on: Staphylococcus aureus; test: Antimicrobial activity against Staphylococcus aureus ATCC 25923 assessed as reduction in bacterial growth incubated for 18 hrs in presence of 150 mM NaCl by CLSI protocol based broth microdilution method (reference value: 8 uM); assay type: functional
[4] = tested on: Escherichia coli; test: Antimicrobial activity against kanamycin-resistant Escherichia coli ATCC 25922; assay type: functional
[5] = tested on: Klebsiella pneumoniae; test: Antimicrobial activity against Klebsiella pneumoniae ATCC 700603 assessed as reduction of bacterial growth incubated for 18 hrs by CLSI protocol based broth microdilution method; assay type: functional
[6] = tested on: Escherichia coli; test: Synergistic antibacterial activity against Escherichia coli ATCC 25922 assessed as fractional inhibitory concentration index incubated for 18 hrs in presence of kanamycin by checker board assay; assay type: functional
[7] = tested on: Escherichia coli; test: Antimicrobial activity against Escherichia coli ATCC 25922 assessed as reduction in bacterial growth incubated for 18 hrs in presence of 10% serum by CLSI protocol based broth microdilution method (reference value: 8 uM); assay type: functional
[8] = tested on: Lipopolysaccharide (LPS); test: Binding affinity to LPS (unknown origin) assessed as reduction in bactericidal activity against Escherichia coli ATCC 25922 at 2 times MIC incubated for 2 hrs in presence of 32 ug/ml of LPS by competitive binding assay
[9] = tested on: Escherichia coli; test: Antimicrobial activity against Escherichia coli ATCC 25922 assessed as reduction in bacterial growth incubated for 18 hrs in presence of 4 uM FeCl3 by CLSI protocol based broth microdilution method (reference value: 8 uM); assay type: functional
[10] = tested on: Escherichia coli; test: Synergistic antibacterial activity against Escherichia coli ATCC 25922 assessed as fractional inhibitory concentration index incubated for 18 hrs in presence of polymyxin B by checker board assay; assay type: functional
[11] = tested on: Staphylococcus aureus; test: Antimicrobial activity against Staphylococcus aureus ATCC 25923 assessed as reduction in bacterial growth incubated for 18 hrs in presence of 4.5 mM KCl by CLSI protocol based broth microdilution method (reference value: 8 uM); assay type: functional
[12] = tested on: Escherichia coli; test: Antimicrobial activity against Escherichia coli ATCC 25922 assessed as fold change in MIC incubated for 18 hrs in presence of 4 uM FeCl3 by CLSI protocol based broth microdilution method relative to control; assay type: functional
[13] = Stability in mouse serum assessed as half life at 10 mM measured upto 360 mins by RP-HPLC analysis; assay type: ADME, cell-free
[14] = tested on: Staphylococcus aureus; test: Antimicrobial activity against Staphylococcus aureus ATCC 25923 assessed as reduction in bacterial growth incubated for 18 hrs in presence of 1 mM MgCl2 by CLSI protocol based broth microdilution method (reference value: 8 uM); assay type: functional
[15] = tested on: Cell membrane; test: Induction of outer membrane permeabilization in Escherichia coli ATCC 25922 by NPN fluorescent dye based assay; assay type: subcellular; conditions: DDE = dose-dependent effect
[16] = tested on: Staphylococcus aureus; test: Synergistic antibacterial activity against Staphylococcus aureus ATCC 25923 assessed as fractional inhibitory concentration index incubated for 18 hrs in presence of kanamycin by checker board assay; assay type: functional
[17] = tested on: Cell membrane; test: Induction of inner membrane permeabilization in Escherichia coli ML-35 ATCC 43587 at 1 to 4 times MIC by ONPG based assay
[18] = tested on: Staphylococcus aureus; test: Antimicrobial activity against Staphylococcus aureus ATCC 25923 assessed as reduction in bacterial growth incubated for 18 hrs in presence of 4 uM FeCl3 by CLSI protocol based broth microdilution method (reference value: 8 uM); assay type: functional
[19] = Acute toxicity in Kunming mouse assessed as hepatocyte hyperemia in liver at 62 mg/kg, ip by H and E staining based analysis; assay type: organism-based
[20] = Acute toxicity in Kunming mouse assessed as swelling in liver at 62 mg/kg, ip by H and E staining based analysis; assay type: organism-based; conditions: in vivo
[21] = Cytotoxicity against human HK-2 cells assessed as reduction in cell viability incubated for 1 hr by resazurin based microplate reader method; assay type: toxicity
[22] = tested on: Escherichia coli; test: Antimicrobial activity against Escherichia coli ATCC 25922 assessed as morphological changes measured after 4 hrs by SEM analysis; assay type: functional, organism-based
[23] = tested on: Escherichia coli; test: Synergistic antibacterial activity against rifampicin-resistant Escherichia coli ATCC 25922 assessed as fractional inhibitory concentration index incubated for 18 hrs in presence of rifampicin by checker board assay; assay type: functional
[24] = tested on: Staphylococcus aureus; test: Antimicrobial activity against Staphylococcus aureus ATCC 25923 assessed as reduction in bacterial growth incubated for 18 hrs in presence of 10% serum by CLSI protocol based broth microdilution method (reference value: 8 uM); assay type: functional
[25] = tested on: Escherichia coli; test: Antimicrobial activity against Escherichia coli ATCC 25922 assessed as adherence to cell membrane measured after 30 mins by SEM analysis; assay type: functional, organism-based
[26] = tested on: Staphylococcus aureus; test: Antimicrobial activity against Staphylococcus aureus ATCC 25923 assessed as breakage of cell membrane measured after 2 hrs by SEM analysis; assay type: functional, organism-based
[27] = Acute toxicity in Kunming mouse assessed as congestion in lungs at 77 mg/kg, ip by H and E staining based analysis; assay type: organism-based; conditions: in vivo
[28] = tested on: Staphylococcus aureus; test: Synergistic antibacterial activity against rifampicin-resistant Staphylococcus aureus ATCC 25923 assessed as fractional inhibitory concentration index incubated for 18 hrs in presence of rifampicin by checker board assay; assay type: functional
[29] = tested on: Staphylococcus aureus; test: Synergistic antibacterial activity against meropenem-resistant Staphylococcus aureus ATCC 25923 assessed as fractional inhibitory concentration index incubated for 18 hrs in presence of meropenem by checker board assay; assay type: functional
[30] = tested on: Escherichia coli; test: Antimicrobial activity against Escherichia coli ATCC 25922 assessed as reduction in bacterial growth incubated for 18 hrs in presence of 4.5 mM KCl by CLSI protocol based broth microdilution method (reference value: 4 uM); assay type: functional
[31] = tested on: Staphylococcus aureus; test: Synergistic antibacterial activity against Staphylococcus aureus ATCC 25923 assessed as fractional inhibitory concentration index incubated for 18 hrs in presence of polymyxin B by checker board assay; assay type: functional
[32] = tested on: Staphylococcus aureus; test: Antimicrobial activity against Staphylococcus aureus ATCC 25923 assessed as reduction in bacterial growth incubated for 18 hrs in presence of 150 mM NaCl by CLSI protocol based broth microdilution method (reference value: 4 uM); assay type: functional
[33] = tested on: Escherichia coli; test: Antimicrobial activity against Escherichia coli ATCC 25922 assessed as reduction in bacterial growth incubated for 18 hrs in presence of 10% serum by CLSI protocol based broth microdilution method (reference value: 4 uM); assay type: functional
[34] = tested on: Escherichia coli; test: Antimicrobial activity against Escherichia coli ATCC 25922 assessed as reduction in bacterial growth incubated for 18 hrs in presence of 1 mM MgCl2 by CLSI protocol based broth microdilution method (reference value: 4 uM); assay type: functional
[35] = tested on: Staphylococcus aureus; test: Antimicrobial activity against Staphylococcus aureus ATCC 25923 assessed as reduction in bacterial growth incubated for 18 hrs in presence of 4 uM FeCl3 by CLSI protocol based broth microdilution method (reference value: 4 uM); assay type: functional

| Substance | Activity [2] | MIC [4] [µM] | MIC [5] [µM] | Activity [8] | fractional inhibitory concentration index (FICI) [10] | fold change (FC) [12] | half-life at 10000 µM [13] [h] | Activity [15] | fractional inhibitory concentration index (FICI) [16] | Activity [17] | CC50 at 1 h [21] [µM] | Activity [22] | Activity [25] | Activity [26] | other results |
| --- | --- | --- | --- | --- | --- | --- | --- | --- | --- | --- | --- | --- | --- | --- | --- |
| H-KWKWKRRRFKWKWK-NH2 | Active | 4 | 16 | Active | 0.375 | 1 | 2.68 | Dde | 0.5 | Active | > 128 | Active | Active | Active | Activity [1]: Active; MIC [3]: 16 µM; fractional inhibitory concentration index (FICI) [6]: 0.3125; MIC [7]: 8 µM; MIC [9]: 8 µM; MIC [11]: 8 µM; MIC [14]: 8 µM; MIC [18]: 8 µM; Activity [19]: Toxic; Activity [20]: Toxic; fractional inhibitory concentration index (FICI) [23]: 0.5625; MIC [24]: 16 µM |
| H-RIRIRRRRFRIRIR-NH2 | Active | 4 | 8 | Active | 0.5 | 2 | 7.7 | Dde | 0.5625 | Active | 65.2 | Active | Active | Active | Activity [27]: Toxic; fractional inhibitory concentration index (FICI) [28]: 0.375; fractional inhibitory concentration index (FICI) [29]: 0.375; MIC [30]: 8 µM; fractional inhibitory concentration index (FICI) [31]: 0.375; MIC [32]: 8 µM; MIC [33]: 4 µM; MIC [34]: 4 µM; MIC [35]: 4 µM |
